Results on four compounds are retold here after publication PMC4492757 (Pharmacology Research & Perspectives, 2015).

Common to all, as to assay type: cell-based
Experiment [1] addresses T1, hFFA2 (Homo sapiens, UniProt O15552).
T1 sequence (O15552 1-330): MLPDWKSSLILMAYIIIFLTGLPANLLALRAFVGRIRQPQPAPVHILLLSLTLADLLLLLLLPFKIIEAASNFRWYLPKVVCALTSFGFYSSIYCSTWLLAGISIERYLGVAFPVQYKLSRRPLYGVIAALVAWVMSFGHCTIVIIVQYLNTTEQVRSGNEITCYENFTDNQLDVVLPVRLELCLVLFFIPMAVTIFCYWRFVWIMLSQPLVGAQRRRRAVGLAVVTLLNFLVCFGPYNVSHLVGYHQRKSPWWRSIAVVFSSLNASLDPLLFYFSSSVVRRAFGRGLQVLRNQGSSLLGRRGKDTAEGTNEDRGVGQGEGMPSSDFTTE
As to the kind of experiment: LANCE cAMP assay, U2OS cells. (TR-FRET usually uses a lanthanide donor and a delayed reading to cut background.)

Experiment [2] deals with T1, hFFA2. As to the kind of experiment: yeast reporter assay, antagonism. (In general: A reporter such as luciferase makes a cellular process visible.)
Experiment [3] addresses T1, hFFA2. The experiment can be described thus: yeast FUS1-HIS3 reporter growth assay.
Experiment [4] has as its target T1, hFFA2. As to the kind of experiment: yeast reporter assay, operational model fit.

Broadly, the EC50 is the concentration giving half of the maximal effect. Read a low EC50 as greater potency. In the case of `CC(=O)O` [C2, acetate], the EC50 in experiment [1] is 126000 nM.
For orientation: Kb means the equilibrium dissociation constant of an antagonist, usually derived from a functional assay. High values mean a less potent antagonist, low ones a more potent antagonist. For `O=C(N[C@@H](Cc1c[nH]c2ccccc12)C(=O)O)c1ccc(Cl)cc1` [N-CBT, N-(4-Chlorobenzoyl)-L-tryptophan], the Kb in experiment [2] was 501 nM.
In general, IC50 refers to the concentration needed to halve the response being measured. Higher therefore signals weaker potency. In experiment [3], `CN(C(=O)[C@H]1CCCC[C@H]1C(=O)O)c1nc(-c2ccccc2Cl)cs1` [compound 101, cis-2-((4-(2-chlorophenyl)thiazol-2-yl)(methyl)carbamoyl)cyclohexaneccarboxylic acid] had an IC50 of 186 nM.
By Kd is commonly meant the concentration at which binding is half-saturated. The compound `O=C(O)C[C@H](C(=O)Nc1nc(-c2ccccc2Cl)cs1)c1ccccc1` [compound 9, (S)-4-(4-(2-chlorophenyl)thiazol-2-ylamino)-4-oxo-3-phenylbutanoic acid] gave a Kd in experiment [4] of 155 nM.
